The results in this text go back to ChEMBL document CHEMBL3351793, “Orally bioavailable factor Xa inhibitors containing alpha-substituted gem-dimethyl P4 moieties” (Bioorg Med Chem Lett, 2014).

Series [1] is described as follows: Oral bioavailability in dog at 0.2 mg/kg administered as cassette dosing. It counts as ADME, organism-based, Canis lupus familiaris. The note with it: in vivo.
The test system of series [2] is Plasma. As to the kind of experiment: Anticoagulant activity in human plasma assessed as concentration required to double prothrombin time. The series is classed as functional.
Series [3] is described as follows: Volume of distribution at steady state in dog at 0.5 mg/kg, iv and 0.2 mg/kg, po administered as cassette dosing. It counts as ADME, organism-based, Canis lupus familiaris. The note with it: in vivo, read-out: Vdss.
A short description of series [4]: Apparent permeability from apical to basolateral side of the human Caco2 cells. The series is classed as ADME, cell-based. The note with it: caco-2. A general note: Caco-2 cells form a polarised layer with tight junctions and transporters.
The nature of series [5]: Half life in dog at 0.2 mg/kg, po administered as cassette dosing. It counts as ADME, organism-based, Canis lupus familiaris. Details: dose 0.2 mg/kg, route oral. The note with it: in vivo.
Series [6] in a line: Clearance in dog at 0.5 mg/kg, iv and 0.2 mg/kg, po administered as cassette dosing. It counts as ADME, organism-based, Canis lupus familiaris. The note with it: in vivo.
Series [7] has as its target Coagulation factor X (Homo sapiens, UniProt P00742). The series is described as follows: Inhibition of purified human factor Xa.
Series [8] addresses Prothrombin (Homo sapiens, UniProt P00734). The series is described as follows: Inhibition of human thrombin.
For series [9], the target named is Urokinase-type plasminogen activator (Homo sapiens, UniProt P00749). As to the kind of experiment: Inhibition of human urokinase.
Series [10] addresses Tissue-type plasminogen activator (Homo sapiens, UniProt P00750). As to the kind of experiment: Inhibition of human tissue plasminogen activator.
Series [11] is described as follows: Inhibition of human factor 7a.
For series [12], the target named is Vitamin K-dependent protein C (Homo sapiens, UniProt P04070). The series is described as follows: Inhibition of human activated protein C.
Series [13] addresses Trypsin (Homo sapiens, UniProt P07477+P07478+P35030). The series is described as follows: Inhibition of human trypsin. The series is classed as protein assay.
The target in series [14] is Plasma kallikrein (Homo sapiens, UniProt P03952). The series is described as follows: Inhibition of human plasma kallikrein.
Series [15] addresses Coagulation factor XI (Homo sapiens, UniProt P03951). The series is described as follows: Inhibition of human factor 11a.
Series [16] is described as follows: Inhibition of human chymotrypsin.
Series [17] deals with Coagulation factor IX (Homo sapiens, UniProt P00740). The series is described as follows: Inhibition of human factor 9a.

Structures are written as SMILES. Where only a bound is given, the exact number is not on record here.

Chain of Coagulation factor X (P00742 41-179 limits assumed): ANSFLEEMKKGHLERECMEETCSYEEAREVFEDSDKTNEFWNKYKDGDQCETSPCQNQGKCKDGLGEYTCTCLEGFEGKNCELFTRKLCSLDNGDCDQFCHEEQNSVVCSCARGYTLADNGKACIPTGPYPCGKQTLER
Chain of Coagulation factor X (P00742 235-488 limits assumed): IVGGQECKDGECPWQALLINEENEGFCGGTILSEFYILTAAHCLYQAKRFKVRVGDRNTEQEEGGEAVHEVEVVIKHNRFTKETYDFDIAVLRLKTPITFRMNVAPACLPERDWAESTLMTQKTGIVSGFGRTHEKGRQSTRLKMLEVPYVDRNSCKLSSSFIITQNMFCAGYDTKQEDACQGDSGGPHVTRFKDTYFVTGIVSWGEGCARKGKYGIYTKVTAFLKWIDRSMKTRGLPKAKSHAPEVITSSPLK
Chain of Vitamin K-dependent protein C (P04070 43-197 limits assumed): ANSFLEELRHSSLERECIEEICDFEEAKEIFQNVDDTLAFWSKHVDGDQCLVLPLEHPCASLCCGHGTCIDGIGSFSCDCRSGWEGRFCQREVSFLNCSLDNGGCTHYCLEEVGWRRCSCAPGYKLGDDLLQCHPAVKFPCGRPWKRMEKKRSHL
Chain of Vitamin K-dependent protein C (P04070 212-461 limits assumed): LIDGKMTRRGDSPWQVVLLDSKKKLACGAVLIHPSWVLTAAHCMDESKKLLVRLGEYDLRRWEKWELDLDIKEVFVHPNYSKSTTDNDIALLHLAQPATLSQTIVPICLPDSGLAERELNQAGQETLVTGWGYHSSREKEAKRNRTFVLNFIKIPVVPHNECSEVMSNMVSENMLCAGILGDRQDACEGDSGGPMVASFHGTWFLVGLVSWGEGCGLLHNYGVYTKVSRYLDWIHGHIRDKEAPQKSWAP
Chain of Tissue-type plasminogen activator (P00750 whole entry): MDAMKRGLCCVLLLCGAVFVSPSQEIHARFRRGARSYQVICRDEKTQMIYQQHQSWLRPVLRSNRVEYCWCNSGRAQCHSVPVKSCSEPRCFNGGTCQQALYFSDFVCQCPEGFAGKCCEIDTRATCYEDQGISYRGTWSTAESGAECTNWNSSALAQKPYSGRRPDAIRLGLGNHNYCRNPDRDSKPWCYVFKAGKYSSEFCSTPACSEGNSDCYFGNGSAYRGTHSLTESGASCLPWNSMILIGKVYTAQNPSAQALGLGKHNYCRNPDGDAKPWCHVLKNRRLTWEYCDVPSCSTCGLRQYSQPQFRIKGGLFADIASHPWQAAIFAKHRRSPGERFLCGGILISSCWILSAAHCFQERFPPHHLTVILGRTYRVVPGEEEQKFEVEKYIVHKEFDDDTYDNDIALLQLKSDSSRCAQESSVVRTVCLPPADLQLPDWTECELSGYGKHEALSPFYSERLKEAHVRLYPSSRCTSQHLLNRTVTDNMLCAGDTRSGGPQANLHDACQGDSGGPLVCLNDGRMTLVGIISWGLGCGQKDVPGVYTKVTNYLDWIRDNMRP
Chain of Coagulation factor IX (P00740 47-191 limits assumed): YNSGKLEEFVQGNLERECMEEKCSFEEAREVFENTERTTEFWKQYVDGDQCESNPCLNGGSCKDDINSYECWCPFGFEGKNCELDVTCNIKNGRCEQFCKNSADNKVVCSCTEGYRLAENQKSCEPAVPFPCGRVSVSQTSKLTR
Chain of Coagulation factor IX (P00740 227-461 limits assumed): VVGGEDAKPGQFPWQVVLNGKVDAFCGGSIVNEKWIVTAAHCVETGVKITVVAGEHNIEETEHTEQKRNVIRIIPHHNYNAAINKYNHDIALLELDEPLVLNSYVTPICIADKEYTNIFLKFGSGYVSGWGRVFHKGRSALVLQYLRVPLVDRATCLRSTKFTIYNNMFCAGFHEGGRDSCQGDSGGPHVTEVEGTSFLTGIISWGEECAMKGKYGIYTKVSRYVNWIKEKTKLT
Chain of Plasma kallikrein (P03952 20-390 limits assumed): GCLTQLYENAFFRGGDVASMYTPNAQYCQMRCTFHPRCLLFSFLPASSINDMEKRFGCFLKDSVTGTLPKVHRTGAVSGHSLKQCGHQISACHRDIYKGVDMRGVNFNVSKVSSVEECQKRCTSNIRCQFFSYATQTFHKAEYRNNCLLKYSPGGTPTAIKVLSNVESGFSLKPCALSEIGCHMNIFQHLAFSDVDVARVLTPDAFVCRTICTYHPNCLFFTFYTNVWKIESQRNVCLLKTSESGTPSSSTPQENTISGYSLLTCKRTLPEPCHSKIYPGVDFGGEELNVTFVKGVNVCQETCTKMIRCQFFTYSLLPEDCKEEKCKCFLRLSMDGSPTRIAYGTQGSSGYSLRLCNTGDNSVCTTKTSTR
Chain of Plasma kallikrein (P03952 391-638 limits assumed): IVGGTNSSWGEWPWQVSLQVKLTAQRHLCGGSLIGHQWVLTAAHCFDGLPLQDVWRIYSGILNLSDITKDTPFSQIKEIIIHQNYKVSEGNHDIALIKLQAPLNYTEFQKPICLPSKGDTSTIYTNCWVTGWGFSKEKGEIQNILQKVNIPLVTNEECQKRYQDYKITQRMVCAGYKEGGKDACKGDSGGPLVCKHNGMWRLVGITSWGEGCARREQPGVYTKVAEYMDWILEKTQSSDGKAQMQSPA
Chain of Coagulation factor XI (P03951 19-387 limits assumed): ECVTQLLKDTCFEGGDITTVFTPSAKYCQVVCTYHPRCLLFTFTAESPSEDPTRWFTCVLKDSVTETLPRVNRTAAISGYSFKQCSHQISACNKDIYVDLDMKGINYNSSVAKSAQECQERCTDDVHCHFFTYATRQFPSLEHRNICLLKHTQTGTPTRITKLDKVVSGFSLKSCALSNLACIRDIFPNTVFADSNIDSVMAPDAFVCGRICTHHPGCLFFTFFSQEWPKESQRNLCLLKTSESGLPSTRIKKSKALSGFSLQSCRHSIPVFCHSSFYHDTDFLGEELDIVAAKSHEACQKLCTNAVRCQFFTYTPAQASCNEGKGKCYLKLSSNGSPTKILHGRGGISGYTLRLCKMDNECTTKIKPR
Chain of Coagulation factor XI (P03951 388-625 limits assumed): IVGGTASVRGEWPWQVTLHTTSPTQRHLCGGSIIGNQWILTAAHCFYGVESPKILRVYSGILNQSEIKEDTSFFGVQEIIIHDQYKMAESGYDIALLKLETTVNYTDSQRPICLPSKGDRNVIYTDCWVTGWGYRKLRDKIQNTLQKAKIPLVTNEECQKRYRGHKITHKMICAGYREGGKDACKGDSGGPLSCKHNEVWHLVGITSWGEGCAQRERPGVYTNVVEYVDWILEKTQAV

A word on the bioavailability: it is the share of a dose that reaches the circulation, judged against a reference dose that is usually intravenous. A lower bioavailability goes with poor availability. What is called Papp is the rate of passage across a membrane or cell layer, normalised by area and donor concentration. In general, half-life refers to the time needed for the level to fall by half in the phase considered. Read a high half-life as slow decline. One may read the Ki as the dissociation constant of the complex between target and ligand, obtained from inhibition or displacement. `COc1ccc(-n2nc(S(C)(=O)=O)c3c2C(=O)N(c2ccc(C(C)(C)CN4CCOCC4)cc2)CC3)cc1` registered a bioavailability in series [1] of 13%. Further, the Activity in series [2] was 3.7 µM. Also, in series [3], the Vd was determined as 10.1 L/kg. In addition, the Papp in series [4] amounted to 17 ×10⁻⁶ cm/s. In addition, the half-life in series [5] is 4.18 h. In addition, the clearance in series [6] is 21.3 mL/min/kg. Moreover, the Ki in series [7] was 0.32 nM.
In [1], `COc1ccc(-n2nc(S(C)(=O)=O)c3c2C(=O)N(c2ccc(C(C)(C)CN4CCCC4)cc2)CC3)cc1` registered a bioavailability of 10%. Moreover, the Activity in series [2] turned out to be 0.92 µM. Further, the Vd in series [3] is 5.5 L/kg. Besides, in [4], the Papp came to 4.3 ×10⁻⁶ cm/s. In addition, the half-life in [5] was 1.4 h. The same molecule had a clearance in [6] of 36.7 mL/min/kg. The same molecule displayed a Ki in series [7] of 0.24 nM.
Turning to `COc1ccc(-n2nc(C(N)=O)c3c2C(=O)N(c2ccc(C(C)(C)S(C)(=O)=O)cc2)CC3)cc1`, the bioavailability in [1] turned out to be 79%. In addition, the Activity in [2] was 3.9 µM. Also, in series [3], the Vd was found to be 0.51 L/kg. The Papp in series [4] worked out at 1 ×10⁻⁶ cm/s. Besides, in [5], the half-life is 1.7 h. For the same molecule, the clearance in series [6] is 5.33 mL/min/kg. Moreover, the Ki in series [7] was determined as 0.48 nM.
`COc1ccc(-n2nc(C(N)=O)c3c2C(=O)N(c2ccc(C(C)(C)O)cc2)CC3)cc1` gave an inhibition constant Ki in series [7] of 9.27 nM.
The molecule `COc1ccc(-n2nc(C(N)=O)c3c2C(=O)N(c2ccc(C(C)(C)CN)cc2)CC3)cc1` came in with a bioavailability in [1] of 44%. In series [2], the Activity is 0.69 µM. Moreover, the Vd in series [3] worked out at 11.8 L/kg. The Papp in series [4] stood at 0.7 ×10⁻⁶ cm/s. This molecule had a half-life in series [5] of 3.33 h. This molecule also gave a clearance in series [6] of 56 mL/min/kg. Besides, the inhibition constant Ki in series [7] was determined as 0.15 nM.
As for `COc1ccc(-n2nc(C(N)=O)c3c2C(=O)N(c2ccc(C(C)(C)C#N)cc2)CC3)cc1`, in series [2], the Activity was 3.4 µM. The apparent permeability coefficient (Papp) in series [4] came out at 18 ×10⁻⁶ cm/s. In series [7], this molecule returned a Ki of 1.22 nM.
On to `COc1ccc(-n2nc(C(N)=O)c3c2C(=O)N(c2ccc(C(C)(C)N4CCCC4)cc2)CC3)cc1`, for which the Activity in series [2] stood at 0.81 µM. In addition, the Vd in [3] amounted to 12 L/kg. The Papp in series [4] was 1.7 ×10⁻⁶ cm/s. This molecule gave a clearance in series [6] of 127 mL/min/kg. Moreover, affinity in [7] was put at a Ki of 0.07 nM.
On to `COc1ccc(-n2nc(S(C)(=O)=O)c3c2C(=O)N(c2ccc(C(C)(C)CO)cc2)CC3)cc1`, for which the Activity in series [2] was found to be 3.9 µM. The Papp in [4] turned out to be 3.6 ×10⁻⁶ cm/s. This molecule came in with an inhibition constant Ki in series [7] of 1.01 nM.
As for `COc1ccc(-n2nc(C(N)=O)c3c2C(=O)N(c2ccc(C(C)(C)CN4CCCCC4=O)cc2)CC3)cc1`, the Activity in series [2] amounted to 7.4 µM. The Papp in series [4] is 8.3 ×10⁻⁶ cm/s. Also, the affinity in series [7] corresponds to a Ki of 1.5 nM.
In the same order, the values of `COc1ccc(-n2nc(C(N)=O)c3c2C(=O)N(c2ccc(C(C)(C)CN4CCCC4)cc2)CC3)cc1` are 0.73 µM, 5.6 ×10⁻⁶ cm/s and 0.05 nM.
Regarding `COc1ccc(-n2nc(S(C)(=O)=O)c3c2C(=O)N(c2ccc(C(C)(C)CN(C)C)cc2)CC3)cc1`, in [1], the bioavailability was determined as 34%. The Activity in series [2] came to 0.67 µM. Further, the Vd in series [3] was determined as 7.3 L/kg. For the same molecule, the Papp in series [4] is 4.1 ×10⁻⁶ cm/s. Moreover, the half-life in [5] was 1.86 h. The same molecule gave a clearance in series [6] of 64.3 mL/min/kg. The molecule further yielded an inhibition constant Ki in series [7] of 0.11 nM.
With `COc1ccc(-n2nc(C(N)=O)c3c2C(=O)N(c2ccc(N4CCCCC4=O)cc2)CC3)cc1` [APIXABAN], in series [3], the Vd stood at 0.2 L/kg. In addition, the clearance in series [6] is 0.333 mL/min/kg.
As for `COc1ccc(-n2nc(C(N)=O)c3c2C(=O)N(c2ccc(C(C)(C)CN(C)C)cc2)CC3)cc1`, in series [1], the bioavailability was found to be 41%. For the same molecule, in series [2], the Activity was 0.45 µM. Also, the Vd in series [3] was found to be 6.57 L/kg. For the same molecule, the Papp in series [4] was 5.9 ×10⁻⁶ cm/s. In series [5], this molecule showed a half-life of 1.04 h. In [6], this molecule showed a clearance of 84 mL/min/kg. Further, the affinity in [7] corresponds to a Ki of 0.07 nM.
With `COc1ccc(-n2nc(C(N)=O)c3c2C(=O)N(c2ccc(C(C)(C)CNC4CC4)cc2)CC3)cc1`, the Activity in series [2] was found to be 0.68 µM. In series [4], the apparent permeability (Papp) is 2.8 ×10⁻⁶ cm/s. The molecule also had a Ki in series [7] of 0.05 nM.
In the case of `COc1ccc(-n2nc(C(N)=O)c3c2C(=O)N(c2ccc(C(C)(C)N(C)C)cc2)CC3)cc1`, the Activity in series [2] was determined as 0.96 µM. Besides, the Papp in series [4] was determined as 1.1 ×10⁻⁶ cm/s. In series [7], this molecule displayed a Ki of 0.2 nM.
`COc1ccc(-n2nc(C(N)=O)c3c2C(=O)N(c2ccc(C(C)(C)CO)cc2)CC3)cc1` gave a bioavailability in [1] of 50%. In addition, the Activity in series [2] stood at 3.8 µM. Besides, the Ki in [8] is 2580 nM; in [9] it was more than 13000 nM; in series [10] it was more than 43000 nM; in [11], more than 15000 nM; in [12], more than 37600 nM; in series [13] it was more than 15000 nM. Besides, the Ki is more than 11000 nM in series [14]; more than 15000 nM in series [15]; more than 40000 nM in series [16]; 0.66 nM in series [7]; more than 15000 nM in [17]. The Vd in series [3] is 3.02 L/kg. Moreover, the apparent permeability (Papp) in series [4] turned out to be 5.8 ×10⁻⁶ cm/s. Moreover, the half-life in [5] is 4.95 h. In addition, the clearance in series [6] is 16.3 mL/min/kg.
Consider `COc1ccc(-n2nc(C(N)=O)c3c2C(=O)N(c2ccc(C(C)(C)CN4CCOCC4)cc2)CC3)cc1`, for which, in series [1], the bioavailability came to 10%. Also, in series [2], the Activity came out at 3.8 µM. Further, in [3], the Vd amounted to 5.01 L/kg. Further, the apparent permeability (Papp) in series [4] turned out to be 17 ×10⁻⁶ cm/s. This molecule also showed a half-life in [5] of 2.8 h. For the same molecule, in series [6], the clearance is 29.3 mL/min/kg. Besides, the affinity in series [7] corresponds to a Ki of 0.06 nM.
